Laboratory results reported in patent US20070032448A1, “Sugar modified nucleosides as viral replication inhibitors” (priority 2002, published 2007).
Like-named read-outs stand apart in the source and are kept apart here.

Columns and labels:
[1] = test system: HCV replicon RNA in replicon cells (Huh-7); assay: HCV replicon assay; type: cell-based, Hepatitis C virus
Procedure: The replicon cells (Huh-7) contain replicating HCV replicon RNA, which was modified in the structural region (replacing the structural region with a neomycin resistance marker). Survival of the replicon cells under G418 selection relies on the replication of HCV RNA and subsequently expression of neomycin phosphoryltransferase. The ability of modified nucleoside libraries and compounds to suppress HCV RNA replication was determined using the Quantigene Assay Kit from Bayer. The assay measures the reduction of HCV RNA molecules in the treated cells. Replicon cells were incubated at 37° C. for 3 days in the presence of nucleoside libraries and compounds before harvested for detection. An HCV subgenomic replicon cell line was provided by Dr. Bartenschlager. The assay protocol was modified based on literature procedure (V. Lohmann, F. Korner, J. O. Koch, U. Herian, L. Theilmann, R. Bartenschlager, Science, 1999, 285, 110-113).

[2] = Pharmacokinetics, intravenous and oral dosing; type: in vivo
[3] = test system: mice; assay: Toxicity in mice; type: in vivo; conditions: 160 mg/kg dosing
[4] = Hepatitis C virus, Huh-7, 72 h, read-out: HCV Replicon EC50
[5] = Hepatitis C virus, 72 h, 2′-beta-methyl cytidine and uridine derivatives, Huh-7 replicon cells, 3 days, read-out: HCV REPLICON EC50
[6] = 2′-beta-6-substituted adenosine derivatives, Huh-7 replicon cells, 3 days, read-out: HCV Replicon EC50

Row | SMILES | EC50 [1, 4] | EC50 [1, 6] | also measured
1 | CC[C@@]1(O)[C@H](O)[C@@H](CO)O[C@H]1n1cnc2c(NC)ncnc21 [Compound P7, N^6-Methyl-2′-C-ethyladenosine] | > 100 µM |  | 
2 | C[C@@]1(O)[C@H](O)[C@@H](CO)O[C@H]1n1ccc(O)nc1=O [Compound P39] |  |  | EC50 [1, 5]: > 100 µM
3 | CSc1ncnc2c1ncn2[C@@H]1O[C@H](CO)[C@@H](O)[C@@]1(C)O [Compound P24, 6-Thiomethyl-9H-(2′-C-methyl-β-D-ribofuranosyl)adenine] |  | < 10 µM | increase of bioavailability compared to Ribavirin ([2]; in vivo): approximately 4 times; AUC ([2]; intravenous dosing): 1950.6 ng·h/mL; C0 ([2]; intravenous dosing): 3452.4 ng/mL; t1/2b ([2]; intravenous dosing): 25.8 min; AUC ([2]; oral dosing): 1953.5 ng·h/mL; Cmax ([2]; oral dosing): 1085.0 ng/mL; Tmax ([2]; oral dosing): 45 min; t1/2β ([2]; oral dosing): 71.4 min; bioavailability ([2]; oral vs intravenous dosing): 100%; body weight, food consumption, and behavior [3]: normal; tissue and organ abnormalities [3]: No tissue and organ abnormalities were observed; toxicity [3]: did not show toxicity
4 | CNc1nc(=O)n([C@@H]2O[C@H](CO)[C@@H](O)[C@@]2(C)O)cc1C [Compound P43] |  |  | EC50 [1, 5]: > 100 µM
5 | C=C[C@@]1(O)[C@H](O)[C@@H](CO)O[C@H]1n1cnc2c(OC)ncnc21 [Compound P15, 9-(2-C-vinyl-β-D-ribofuranosyl)-6-methoxy-purine] | > 100 µM |  | 
6 | Nc1ncnc2c1ncn2[C@@H]1O[C@H](CO)[C@@H](O)[C@]1(O)C1CC1 [Compound P16, 2′-C-Cyclopropyladenosine] | > 100 µM |  | 
7 | COc1ncnc2c1ncn2[C@@H]1O[C@H](CO)[C@@H](O)[C@]1(O)C1CC1 [Compound P20, 9-(2-C-cyclopropyl-β-D-ribofuranosyl)-6-methoxypurine] | > 100 µM |  | 
8 | CNc1ccn([C@@H]2O[C@H](CO)[C@@H](O)[C@@]2(C)O)c(=O)n1 [Compound P40] |  |  | EC50 [1, 5]: > 100 µM
9 | Cc1cn([C@@H]2O[C@H](CO)[C@@H](O)[C@@]2(C)O)c(=O)nc1N [Compound P38] |  |  | EC50 [1, 5]: > 100 µM
10 | COc1ncnc2c1ncn2[C@@H]1O[C@H](CO)[C@@H](O)[C@@]1(C)O [Compound P25] |  | < 10 µM | 
11 | C=C[C@@]1(O)[C@H](O)[C@@H](CO)O[C@H]1n1cnc2c(SC)ncnc21 [Compound P14, 9-(2-C-Vinyl-β-D-ribofuranosyl)-6-methylmercaptopurine] | > 100 µM |  | 
12 | CC[C@@]1(O)[C@H](O)[C@@H](CO)O[C@H]1n1cnc2c(SC)ncnc21 [Compound P9, 9-(2-C-Ethyl-β-D-ribofuranosyl)-6-methylmercaptopurine] | > 100 µM |  | 
13 | CN(C)c1ccn([C@@H]2O[C@H](CO)[C@@H](O)[C@@]2(C)O)c(=O)n1 [Compound P41] |  |  | EC50 [1, 5]: > 100 µM
14 | CSc1ncnc2c1ncn2[C@@H]1O[C@H](CO)[C@@H](O)[C@]1(O)C1CC1 [Compound P19, 9-(2-C-Cyclopropyl-β-D-ribofuranosyl)-6-methylmercaptopurine] | > 100 µM |  | 
15 | CN(C)c1ncnc2c1ncn2[C@@H]1O[C@H](CO)[C@@H](O)[C@]1(O)C1CC1 [Compound P18, N^6-Dimethyl-2′-C-cyclopropylyladenosine] |  | > 100 µM | 
16 | Cc1cn([C@@H]2O[C@H](CO)[C@@H](O)[C@@]2(C)O)c(=O)nc1O [Compound P42] |  |  | EC50 [1, 5]: > 100 µM
17 | C=C[C@@]1(O)[C@H](O)[C@@H](CO)O[C@H]1n1cnc2c(N(C)C)ncnc21 [Compound P13, N^6-Dimethyl-2′-C-vinyladenosine] |  | > 100 µM | 
18 | CN(C)c1ncnc2c1ncn2[C@@H]1O[C@H](CO)[C@@H](O)[C@@]1(C)O [Compound P23, N^6-Dimethyl-9H-(2′-C-methyl-β-D-ribofuranosyl)adenine] |  | < 10 µM | 
19 | CC[C@@]1(O)[C@H](O)[C@@H](CO)O[C@H]1n1cnc2c(N)ncnc21 [Compound P6, 2′-C-Ethyladenosine] | > 100 µM |  | 
20 | CC[C@@]1(O)[C@H](O)[C@@H](CO)O[C@H]1n1cnc2c(N(C)C)ncnc21 [Compound P8, N^6-Dimethyl-2′-C-ethyladenosine] |  | > 100 µM | 
21 | C[C@@]1(O)[C@H](O)[C@@H](CO)O[C@H]1n1ccc(N)nc1=O [Compound P37, 2′-β-C-Methylcytidine] |  |  | EC50 [1, 5]: < 10 µM
22 | C=C[C@@]1(O)[C@H](O)[C@@H](CO)O[C@H]1n1cnc2c(NC)ncnc21 [Compound P12, N^6-Methyl-2′-C-vinyladenosine] | > 100 µM |  | 
23 | Cc1cn([C@@H]2O[C@H](CO)[C@@H](O)[C@@]2(C)O)c(=O)nc1N(C)C [Compound P44] |  |  | EC50 [1, 5]: > 100 µM
24 | C[C@@]1(O)[C@H](O)[C@@H](CO)O[C@H]1n1cnc2c(N)ncnc21 [Compound P21] |  | < 10 µM | 
25 | CNc1ncnc2c1ncn2[C@@H]1O[C@H](CO)[C@@H](O)[C@]1(O)C1CC1 [Compound P17, N^6-Methyl-2′-C-cyclopropylyladenosine] |  | > 100 µM | 
26 | CC[C@@]1(O)[C@H](O)[C@@H](CO)O[C@H]1n1cnc2c(OC)ncnc21 [Compound P10, 9-(2-C-ethyl-β-D-ribofuranosyl)-6-methoxy-purine] | > 100 µM |  | 
27 | CNc1ncnc2c1ncn2[C@@H]1O[C@H](CO)[C@@H](O)[C@@]1(C)O [Compound P22, N^6-Methyl-9H-(2′-C-methyl-β-D-ribofuranosyl)adenine] |  | < 10 µM | 
28 | C=C[C@@]1(O)[C@H](O)[C@@H](CO)O[C@H]1n1cnc2c(N)ncnc21 [Compound P11, 2′-C-Vinyladenosine] | > 100 µM |  | 
